Test results as given in patent publication US20250332173A1, “COMPOUNDS AND METHODS FOR MODULATING NUCLEIC ACID SPLICING” (REMIX THERAPEUTICS INC., priority 2021, published 2025).
Read-outs that look alike come from different tables or passages of the source.

Tests used:
MYB = assay: HiBiT protein abundance assay, MYB HiBiT K562 cell line; type: cell-based, human; settings: 24 hours, top dose 10 μM
Procedure: (§1) Compounds described herein were used to screen for effects on quantitative protein abundance using a HiBit assay system (Promega). Quantitative protein abundance was determined by measuring the protein levels of HiBit-tagged protein targets expressed in cell culture via luminescence using the Nano-Glo HiBiT Lytic Detection System, which uses a split complementation assay format to reconstitute NanoBiT enzyme to generate a luminescent signal. A protein abundance assay was developed such that endogenous protein targets could be modified with the HiBiT peptide tag and their abundance could be assessed after compound treatment. Briefly, K562 cell lines containing a HiBiT-modification were treated with various compounds described herein (e.g., compounds of Formulas (I), (II), (III), (IV), (V), (VI), (VII), (VIII), or (IX)). After treatment for 24 hours, the protein abundance of a specific target was determined by measuring luminescence.
(§2) • Promega Nano-Glo HiBiT Lytic Detection System (cat #N3030) • Corning 384-well TC-treated microplates (cat #3570) • Synthego Engineered Cells Knock-In Clones
(§3) Cells were maintained in IMDM with 10% FBS. Before the assay, cells were diluted with […] growth media (IMDM+[…] media) and were seeded in a 384-well plate at a density of 10,000 cells/well (for each cell line listed in Table 5). Each compound was prepared as a 10-point 3-fold serial dilution in DMSO with the top dose at a final concentration of 10 μM in the well. Unmodified K562 cells were added at the previously specified density with DMSO to serve as an assay baseline and positive control (PC) and DMSO only with the respective modified cell lines was added to the negative control (NC) columns. Final DMSO concentration was kept at or below 0.25%. Treated cell plates were placed in an incubator at 37° C. with […] for 24 hours. After 24 hours, 25 μL of Complete HiBit Lytic reagent was added to each well at room temperature (e.g. one plate requiring 10 mL Lytic Buffer, 100 μL LgBiT Protein, 200 μL Lytic Substrate), shaken for 5 minutes at 600 RPM, then left to sit for 10 minutes for signal to stabilize before reading on a Spark Cyto plate reader (Tecan) with a 500 ms measurement time.
(§4) To determine compound effects on protein abundance of each target in Table 5, the percent response for each respective cell line was calculated at each compound concentration as follows:
(§5) For the normalized response at each concentration, a four-parameter logistical regression was fit to the data and the response was interpolated at the […] to determine a concentration for protein abundance at […] the untreated control.

[1] = test system: K562 (human chronic myelogenous leukemia) cells; assay: Cell Titer Glo 2.0 cell viability assay; type: cell-based; settings: Homo sapiens, K562, 72 h, read-out: K562 GI50
HTT = assay: HiBiT protein abundance assay, HTT HiBiT K562 cell line; type: cell-based, human; settings: 24 hours, top dose 10 μM
Procedure: as §1, §2, §3, §4, §5

Target C [2] = assay: HiBiT protein abundance assay, Target C HiBiT K562 cell line; type: cell-based; settings: Homo sapiens; HiBiT lytic detection, modified K562 cells, 24 hours, top dose 10 μM; read-out: Effect on protein abundance, Target C (IC50)
Procedure: as §2, §3, §4, §5

SMN2 mRNA = assay: RT-qPCR splicing assay, SMN2 canonical junction (CJ) mRNA; type: cell-based, human; settings: Homo sapiens
How it was run: (§6)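 A673 cells (DMEM/10% FBS) or K562 cells (IMDM/10% FBS) were treated 24 h at 37° C. with 11-point 3-fold dilutions (top 10 uM, ≤0.25% DMSO). Canonical-junction mRNA was quantified in lysates by RT-qPCR, normalized to GAPDH, GUSB or PPIA.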

MYB mRNA = assay: RT-qPCR splicing assay, MYB canonical junction (CJ) and alternative junction (AJ) mRNA; type: cell-based, human; settings: Homo sapiens
How it was run: (§7)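 A673 cells (normalized to PPIA) or K562 cells (normalized to GAPDH or GUSB) were treated 24 h at 37 °C with an 11-point 3-fold dilution series, top 10 uM, DMSO ≤0.25%. Cell lysates went to one-step RT-qPCR measuring canonical- and alternative-junction MYB or HTT transcripts.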

HTT mRNA = assay: RT-qPCR splicing assay, HTT canonical junction (CJ) and alternative junction (AJ) mRNA; type: cell-based, human; settings: Homo sapiens
How it was run: as §7

Target C [3] = assay: HiBiT protein abundance assay, Target C (Promega Nano-Glo HiBiT Lytic Detection System, knock-in K562 cell line); type: cell-based, human; settings: Homo sapiens, K562, 24 h, read-out: Effect on protein abundance, Target C (IC50 category)
Procedure: as §2, §3, §4, §5

Target C [4] = assay: RT-qPCR splicing assay panel, Target C canonical junction (CJ) mRNA; type: cell-based, human; settings: Homo sapiens
How it was run: as §6

[5] = HiBiT lytic detection, modified K562 cells, read-out: Effect on protein abundance, MYB (IC50)
[6] = K562 cells, 72 hours, Cell Titer Glo 2.0
[7] = HiBiT lytic detection, modified K562 cells, read-out: Effect on protein abundance, HTT (IC50)
[8] = canonical junction qPCR panel, Table 5, read-out: SMN2 (decrease in CJ mRNA levels, IC50)
[9] = canonical junction qPCR panel, Table 5, read-out: MYB (decrease in CJ mRNA levels, IC50)
[10] = decrease in MYB canonical junction (CJ) mRNA, RT-qPCR, read-out: MYB CJ IC50
[11] = increase in MYB alternative junction (AJ) mRNA, RT-qPCR, read-out: MYB AJ AC50
[12] = decrease in HTT canonical junction (CJ) mRNA, RT-qPCR, read-out: HTT CJ IC50
[13] = increase in HTT alternative junction (AJ) mRNA, RT-qPCR, read-out: HTT AJ AC50
[14] = canonical junction qPCR panel, Table 5, read-out: HTT (decrease in CJ mRNA levels, IC50)

Compound | IC50 (MYB; [5]) [µM] | GI50 [1, 6] [µM] | IC50 (HTT; [7]) [µM] | IC50 (Target C [2]) [µM] | IC50 (SMN2 mRNA; [8]) [µM] | IC50 (MYB mRNA; [9]) [nM] | IC50 (MYB mRNA; [10]) [nM] | AC50 (MYB mRNA; [11]) [nM] | IC50 (HTT mRNA; [12]) [nM] | AC50 (HTT mRNA; [13]) [nM] | IC50 (HTT mRNA; [14]) [nM] | also measured
Cc1cn2nc(-c3cnc4c(=O)n(C5CCNCC5)ncc4c3)cc(C)c2n1 [Compound 1411] | 1 to 10 | 1 to 10 | 1 to 10 | 1 to 10 | – | – | – | – | – | – | – | –
Cn1cc2cc(-n3cnc4ccc(C5=CCNCC5)cc4c3=O)ccc2n1 [Compound 2151] | > 10 | – | > 10 | > 10 | > 10 | 100 to 1000 | > 10000 | 100 to 1000 | > 10000 | > 10000 | > 10000 | –
Cc1cn2cc(-c3ccc4c(=O)n([C@H]5CCNC5)cc(C)c4c3)cc(F)c2n1 [Compound 451, (S)-6-(8-fluoro-2-methylimidazo[1,2-a]pyridin-6-yl)-4-methyl-2-(pyrrolidin-3-yl)isoquinolin-1(2H)-one] | – | 1 to 10 | – | – | – | – | – | – | – | – | – | IC50 (MYB; HiBiT K562 cell line, read-out: Effect on protein abundance, MYB (IC50 category)): 1 to 10 µM; IC50 (Target C [3]; HiBiT K562 cell line, 24 hours, top dose 10 μM): > 10 µM; IC50 (Target C [4]; Table 5 panel, canonical junction qPCR, compound concentration having 50% response in CJ decrease, read-out: Target C IC50 (decrease in CJ mRNA levels)): > 10 µM; IC50 (HTT; HiBiT K562 cell line, read-out: Effect on protein abundance, HTT (IC50 category)): 1 to 10 µM; IC50 (SMN2 mRNA; Table 5 panel, canonical junction qPCR, compound concentration having 50% response in CJ decrease, read-out: SMN2 IC50 (decrease in CJ mRNA levels)): 0.1 to 1 µM; IC50 (MYB mRNA; Table 5 panel, canonical junction qPCR, compound concentration having 50% response in CJ decrease, read-out: MYB IC50 (decrease in CJ mRNA levels)): 1000 to 10000 nM; IC50 (HTT mRNA; Table 5 panel, canonical junction qPCR, compound concentration having 50% response in CJ decrease, read-out: HTT IC50 (decrease in CJ mRNA levels)): > 10000 nM
Cn1cc2cc(-n3cnc4ccc(N5CCNCC5)cc4c3=O)ccc2n1 [Compound 2155] | > 10 | – | > 10 | > 10 | > 10 | > 10000 | > 10000 | > 10000 | > 10000 | > 10000 | > 10000 | –
Cc1cn2nc(-c3ccc4c(=O)n(C5CCN(C6CCC6)C6(CC6)C5)ncc4n3)cc(C)c2n1 (stereo not shown) [Compound 1540, 6-(4-cyclobutyl-4-azaspiro[2.5]octan-7-yl)-2-(2,8-dimethylimidazo[1,2-b]pyridazin-6-yl)pyrido[2,3-d]pyridazin-5-one] | – | – | – | – | – | – | – | – | – | – | – | IC50 (MYB; read-out: Effect on protein abundance, MYB (IC50 category), HiBiT K562 cell line): 0.1 to 1 µM; GI50 [1]: 0.1 to 1 µM; IC50 (Target C [3]): 0.1 to 1 µM; IC50 (Target C [4]; read-out: Target C (decrease in CJ mRNA levels, IC50)): 0.1 to 1 µM; IC50 (HTT; read-out: Effect on protein abundance, HTT (IC50 category), HiBiT K562 cell line): 0.1 to 1 µM; IC50 (SMN2 mRNA; read-out: SMN2 (decrease in CJ mRNA levels, IC50)): < 0.1 µM; IC50 (MYB mRNA; read-out: MYB (decrease in CJ mRNA levels, IC50)): 100 to 1000 nM; AC50 (MYB mRNA; read-out: MYB AJ AC50 (nM)): 100 to 1000 nM; IC50 (MYB mRNA; read-out: MYB CJ IC50 (nM)): 100 to 1000 nM; IC50 (HTT mRNA; read-out: HTT (decrease in CJ mRNA levels, IC50)): 100 to 1000 nM; AC50 (HTT mRNA; read-out: HTT AJ AC50 (nM)): 100 to 1000 nM; IC50 (HTT mRNA; read-out: HTT CJ IC50 (nM)): 100 to 1000 nM
CN1CCN(c2ccc3ncn(-c4ccc5nn(C)cc5c4)c(=O)c3c2)CC1 [Compound 2154] | > 10 | – | > 10 | > 10 | > 10 | > 10000 | > 10000 | > 10000 | > 10000 | > 10000 | > 10000 | –
Cn1cc2cc(-c3cc4ncn(C5CCNCC5)c(=O)c4cn3)c(O)c(F)c2n1 [Compound 1276] | 0.1 to 1 | 0.1 to 1 | < 0.1 | < 0.1 | – | – | – | – | – | – | – | –
Cc1cc(-c2nc3cc(N4CCN(C)CC4)ccc3c(=O)[nH]2)cc2cn(C)nc12 [Compound 2214] | > 10 | 1 to 10 | > 10 | > 10 | > 10 | – | – | – | > 10000 | > 10000 | > 10000 | IC50 (Target C [4]; canonical junction qPCR panel, Table 5, read-out: Target C (decrease in CJ mRNA levels, IC50)): > 10 µM
